These are literature values, as cited in patent publication US11058672B2, “Pharmaceutical compositions and methods for producing low impurity concentrations of the same” (Chiesi Farmaceutici S.p.A., priority 2008, dated 2021).

For the compound `CCCC(=O)OCOC(=O)C1=C(C)NC(C)=C(C(=O)OC)C1c1cccc(Cl)c1Cl` (stereo not shown) [Clevidipine, butyroxymethyl methyl 4-(2′,3′-dichlorophenyl)-1,4-dihydro-2,6-dimethyl-3,5-pyridinedicarboxylate], the solubility in water result is reported as “practically insoluble”.
